1/Ki and IC50 data for 3 compounds are collected here from ChEMBL document CHEMBL1126993, “Synthesis of oxazolidinone phospholipid analogue as a new inhibitor of phospholipase A2” (Bioorg Med Chem Lett, 1993).

Assay [1] has as its target T1, Phospholipase A2 (Homo sapiens, UniProt P04054). The assay can be described thus: Tested for binding affinity of compound against Phospholipase A2 (PLA2). The conditions noted are these: Gloydius blomhoffi.
Target sequence in this assay (P04054 23-148 limits assumed): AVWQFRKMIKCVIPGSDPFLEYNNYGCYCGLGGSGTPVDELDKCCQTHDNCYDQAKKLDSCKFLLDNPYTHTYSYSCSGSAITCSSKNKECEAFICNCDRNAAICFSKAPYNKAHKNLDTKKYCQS
The target of assay [2] is T1, Phospholipase A2. The assay can be described thus: Tested for inhibitory activity of compound against Phospholipase A2 (PLA2); showed no significant inhibitory activity. Further details: species or system Gloydius blomhoffi; call rule not given here.
Target sequence in this assay (P04054 whole entry): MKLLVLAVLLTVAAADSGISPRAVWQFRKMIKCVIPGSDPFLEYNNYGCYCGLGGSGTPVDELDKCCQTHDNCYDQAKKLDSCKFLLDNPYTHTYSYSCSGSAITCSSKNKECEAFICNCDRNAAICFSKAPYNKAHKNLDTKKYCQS

At Phospholipase A2 [1], `CCCCCCCCCCCC(=O)N1C(=O)OC[C@@H]1COP(=O)([O-])OCC[N+](C)(C)C` yielded a 1/Ki of 45000 M⁻¹.

On Phospholipase A2 [1], `CCCCCCCCCCCC(=O)N[C@H](CCCC)COP(=O)([O-])OCC[N+](C)(C)C` came in with a 1/Ki of 270000 M⁻¹. As to `CCCCCCCCCCCC(=O)N1C(=O)OC[C@H]1COP(=O)([O-])OCC[N+](C)(C)C`, the IC50 entry on Phospholipase A2 [2] is reported as “Not Active”.
